Test results taken from publication PMC6429183, “Identification of Compounds That Inhibit Estrogen-Related Receptor Alpha Signaling Using High-Throughput Screening Assays” (Molecules, 2019).
Values joined by “and” are separate entries in the source; they are usually repeats but may differ in a detail not shown here. Equal values may be shown once.

How the values were obtained:
[1] = tested on: ERR reporter HEK293 cells; assay: CellTiter-Fluor cell viability assay multiplexed with ERR reporter assay; type: cell-based; details: for ERR-HEK293 Follow-Up Viability EC50: follow-up screen
Procedure: (§1) ERR or PGC/ERR reporter HEK293 cells suspended in culture medium without puromycin were dispensed at 2500 cells/5 μL/well in tissue culture–treated 1536-well white assay plates (Greiner Bio-One North America, Monroe, NC, USA) using a Thermo Scientific Multidrop Combi (ThermoFisher Scientific, Inc.). […] After the cells were incubated at 37 °C with 5% CO2 for 6 h, 23 nL of compounds or control, XTC790, was transferred into the assay plates using a Wako Pintool station (Wako Automation, San Diego, CA, USA). The assay plates were incubated at 37 °C for 18 h, followed by the addition of 5 μL ONE-Glo luciferase reagent (Promega, Madison, WI, USA) using a Flying Reagent Dispenser (Aurora Discovery, Carlsbad, CA, USA). After 30 min of incubation at room temperature, the luminescence intensity of the assay plates was quantified using a ViewLux plate reader (PerkinElmer, Shelton, CT, USA). The assays were performed three times for each compound concentration. These ERR and PGC/ERR reporter assays were multiplexed with the CellTiter-Fluor Cell Viability Assay (Promega), a fluorescence-based cell viability assay, to assess compound cytotoxicity.
The qHTS data were analyzed as described previously. […] The DMSO-only compound plates at the beginning and end of the compound plate stack were used to correct the data set by applying an in-house pattern correction algorithm. The half maximum inhibition values (IC50) for each compound and maximum response (efficacy) values were obtained by fitting the concentration-response curves of each compound to a four-parameter Hill equation [91]. […] For each reading, the activity outcome of a test compound was first categorized by the average curve rank from the triplicate runs and the reproducibility calls. The final activity outcome of each compound was based on the ERR antagonist readout activity and cell viability counter screen.

[2] = tested on: PGC/ERR reporter HEK293 cells; assay: CellTiter-Fluor cell viability assay multiplexed with PGC/ERR reporter assay; type: cell-based; details: for PGC/ERR-HEK293 Follow-Up Viability EC50: follow-up screen
Procedure: as §1
The qHTS data were analyzed as described previously. Each titration point was normalized relative to the positive control compound (XCT790 = −100%) and DMSO-only wells (0%) according to the following equation: % Activity = [(Vcompound − VDMSO)/(VDMSO − Vpos)] × 100, where Vcompound denotes the compound well values, Vpos denotes the median value of the positive control wells, and VDMSO denotes the median values of the DMSO-only wells. The DMSO-only compound plates at the beginning and end of the compound plate stack were used to correct the data set by applying an in-house pattern correction algorithm. The half maximum inhibition values (IC50) for each compound and maximum response (efficacy) values were obtained by fitting the concentration-response curves of each compound to a four-parameter Hill equation [91]. Compounds were designated as Class 1–4 according to the type of concentration–response curve observed. For each reading, the activity outcome of a test compound was first categorized by the average curve rank from the triplicate runs and the reproducibility calls. The final activity outcome of each compound was based on the ERR antagonist readout activity and cell viability counter screen.

[3] = tested on: IDH3α; assay: qRT-PCR mRNA expression of ERR downstream gene IDH3α; type: cell-based; details: ERR reporter cells, vs GAPDH, DMSO = 0%
Procedure: (§2) Total RNA was isolated from treated ERR reporter cells using an RNeasy Mini Kit (Qiagen, Germantown, MD, USA), homogenized using a QIAshredder (Qiagen), and reverse transcribed with a High-Capacity RNA-to-cDNA™ Kit (ThermoFisher Scientific, Inc.) following the manufacturers’ instructions. Expression of ERRα, COX8α, IDH3α, PPARα, COX4I1, and cytochrome c genes was normalized against GAPDH. All primers were purchased from ThermoFisher Scientific, Inc. Real-time PCR assays were performed in 384-well plates on a QuantStudio 5 (Applied Biosystems, Foster City, CA, USA) with TaqMan™ Gene Expression Master Mix (ThermoFisher Scientific, Inc.). Induction values were calculated using the equation: Fold = 2^ΔΔCt, where ΔCt represents the differences in cycle threshold numbers between each of the target genes and GAPDH, and ΔΔCt represents the relative change in these differences between control and treatment groups. Experimental data are presented as a mean of triplicate determinations ± SD. Statistical comparisons were made by t-test, while the statistical significance was set at p values of <0.05 (light blue), <0.01 (medium blue), and <0.001 (dark blue).

[4] = tested on: cytochrome c; assay: qRT-PCR mRNA expression of ERR downstream gene cytochrome c; type: cell-based; details: ERR reporter cells, vs GAPDH, DMSO = 0%
Procedure: as §2

[5] = tested on: Nrf2/antioxidant response element (ARE); assay: Nrf2/ARE-HepG2 β-lactamase reporter agonist assay; type: cell-based; details: agonist mode, heatmap outcome
Procedure: After the assay plates were incubated at 37 °C for 5–6 h, 23 nL of compounds dissolved in DMSO or positive controls were transferred to the assay plates via a Wako Pintool station (Wako). Except for ARE and p53, all other assays received 1 µL/well agonist (10 nM R1881 for AR; 0.5 and 5 nM β-estradiol for ERα and ERβ respectively; 300 µM CDCA for FXR; 50 nM Rosiglitazone for PPARγ; and 5 nM R5020 for PR) or assay medium using a Flying Reagent Dispenser (FRD). The assay plates were incubated for 16 h (AR, Nrf2/ARE, ERβ, FXR, p53, and PR), 17 h (PPARγ), or 18 h (ERα) at 37 °C, and 1 µL/well LiveBLAzer™ FRET-B/G CCF4-AM substrate (ThermoFisher Scientific, Inc.) detection mix was added using an FRD and the plates were incubated at room temperature for 2 h. […] Data were expressed as the ratio of 460/530 nm emission values.

[6] = target: T1, ERRα with PGC-1α (PGC/ERR pathway) (Homo sapiens, UniProt P11474); assay: PGC/ERR reporter (luciferase) qHTS assay, PGC/ERR-HEK293; details: for EC50: mean ± SD, triplicate; for PGC/ERR-HEK293 Follow-Up Efficacy: follow-up screen; for PGC/ERR-HEK293 Follow-Up Efficacy / PGC/ERR-HEK293 Primary Efficacy: negative = antagonism, positive = agonism; for activity in the ERR/PGC assay: in words; for PGC/ERR-HEK293 Primary Efficacy: primary qHTS
T1 sequence (P11474 1-423): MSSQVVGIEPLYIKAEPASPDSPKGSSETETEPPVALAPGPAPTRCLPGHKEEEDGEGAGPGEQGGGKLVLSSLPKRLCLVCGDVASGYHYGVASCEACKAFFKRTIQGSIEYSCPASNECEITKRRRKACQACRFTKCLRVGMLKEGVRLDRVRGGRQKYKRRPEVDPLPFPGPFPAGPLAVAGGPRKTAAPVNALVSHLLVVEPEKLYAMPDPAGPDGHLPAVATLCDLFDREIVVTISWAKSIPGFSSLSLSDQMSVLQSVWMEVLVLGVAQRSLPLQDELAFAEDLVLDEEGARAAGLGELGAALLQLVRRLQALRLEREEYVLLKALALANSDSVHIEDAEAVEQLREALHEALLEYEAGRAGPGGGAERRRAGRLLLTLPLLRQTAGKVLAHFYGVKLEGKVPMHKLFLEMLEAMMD
Procedure: (§3) The ERR reporter HEK293 cells were cultured in high glucose DMEM medium (ThermoFisher Scientific, Inc., Waltham, MA, USA) supplemented with 10% fetal bovine serum (FBS; ThermoFisher Scientific, Inc.), 4 mM of L-glutamine (ThermoFisher Scientific, Inc.), 1 mM of sodium pyruvate (ThermoFisher Scientific, Inc.), 100 U/mL of penicillin and 100 mg/mL of streptomycin (ThermoFisher Scientific, Inc.). PGC/ERR reporter HEK293 cells were cultured in the same medium as the ERR reporter HEK293 cells with an additional 1 μg/mL puromycin (ThermoFisher Scientific, Inc.) as the selection marker for PGC-1α expression.
(§4) The DMSO-only compound plates at the beginning and end of the compound plate stack were used to correct the data set by applying an in-house pattern correction algorithm [90]. The half maximum inhibition values (IC50) for each compound and maximum response (efficacy) values were obtained by fitting the concentration-response curves of each compound to a four-parameter Hill equation [91]. […] For each reading, the activity outcome of a test compound was first categorized by the average curve rank from the triplicate runs and the reproducibility calls. The final activity outcome of each compound was based on the ERR antagonist readout activity and cell viability counter screen.

[7] = target: T2, estrogen-related receptor alpha (ERRα) (Homo sapiens, UniProt P11474); assay: ERR reporter (luciferase) antagonist qHTS assay, ERR-HEK293; details: for EC50: mean ± SD, triplicate; for ERR-HEK293 Follow-Up Efficacy: follow-up screen; for ERR-HEK293 Follow-Up Efficacy / ERR-HEK293 Primary Efficacy: relative to XCT790 = −100%; for ERR-HEK293 Primary Efficacy: primary qHTS, DMSO = 0%
T2 sequence (P11474 1-423): T1 sequence (P11474 1-423)
Procedure: as §3, §4

[8] = tested on: COX8α; assay: qRT-PCR mRNA expression of ERR downstream gene COX8α; type: cell-based; details: ERR reporter cells, vs GAPDH, DMSO = 0%
Procedure: as §2

[9] = tested on: COX4I1; assay: qRT-PCR mRNA expression of ERR downstream gene COX4I1; type: cell-based; details: ERR reporter cells, vs GAPDH, DMSO = 0%
Procedure: as §2, with “Experimental data are presented as a mean of triplicate determinations ± SD. Statistical comparisons were made by t-test, while the statistical significance was set at p values of <0.05 (light blue), <0.01 (medium blue), and <0.001 (dark blue).” left out

[10] = tested on: PPARα; assay: qRT-PCR mRNA expression of ERR downstream gene PPARα; type: cell-based; details: 12 µM; ERR reporter cells; vs GAPDH, DMSO = 0%
[11] = PGC/ERR-HEK293 Follow-Up EC50, follow-up screen
[12] = PGC/ERR-HEK293 Primary EC50, primary qHTS, 18 h
[13] = ERR-HEK293 Follow-Up EC50, follow-up (confirmation) screen
[14] = ERR-HEK293 Primary EC50, primary qHTS, 18 h, 15 concentrations

EC50 [6, 11] [µM] | EC50 [6, 12] [µM] | PGC/ERR-HEK293 Follow-Up Efficacy [6] [%] | activity in the ERR/PGC assay [6] | PGC/ERR-HEK293 Primary Efficacy [6] [%] | EC50 [7, 13] [µM] | EC50 [7, 14] [µM] | ERR-HEK293 Follow-Up Efficacy [7] [%] | ERR-HEK293 Primary Efficacy [7] [%] | SMILES | ERR-HEK293 Follow-Up Viability EC50 [1] | PGC/ERR-HEK293 Follow-Up Viability EC50 [2] | activity in the Nrf2-ARE assay [5] | also measured
10.7 ± 2.44 | 2.1 ± 0.526 | 89.3 ± 19.5 | agonist activity | 62.9 ± 2.71 | 8.12 ± 4.42 | 9.24 ± 8.56 | −88.9 ± 6.62 | −115 ± 6.85 | COc1cc([C@@H]2c3cc4c(cc3[C@@H](O[C@@H]3O[C@@H]5CO[C@@H](C)O[C@H]5[C@H](O)[C@H]3O)[C@H]3COC(=O)[C@H]23)OCO4)cc(OC)c1O [Etoposide] | Inactive | Inactive | active agonists | EC50 ([1]; Homo sapiens, HEK293, primary qHTS, viability counter screen, read-out: ERR-HEK293 Primary Viability EC50 (converted)): 56.3 µM; EC50 ([2]; Homo sapiens, HEK293, primary qHTS, read-out: PGC/ERR-HEK293 Primary Viability EC50 (converted)): 56.3 µM; Percent inhibition of mRNA gene expression, IDH3α ([3]; 18 µM): 7.19 ± 23.5%; Percent inhibition of mRNA gene expression, Cytochrome C ([4]; 18 µM): 6.55 ± 3.18%; activity in the ERR assay ([7]; in words): antagonistic activity
1.57 ± 0.354 | 0.845 ± 0.0971 | −61.5 ± 12.6 | antagonism | −68.4 ± 7.64 | 1.6 ± 0.104 | 1.06 ± 0.122 | −104 ± 7.68 | −90.9 ± 4.94 | Cc1nc(N)nc(N)c1-c1ccc(Cl)c(Cl)c1 [Methodichlorophen] | Inactive | Inactive | active agonists | ERR-HEK293 Primary Viability EC50 ([1]; primary qHTS, viability counter screen): Inactive; PGC/ERR-HEK293 Primary Viability EC50 ([2]; primary qHTS): Inactive; Percent inhibition of mRNA gene expression, COX8α ([8]; 2 µM): 17.1 ± 29.5%; Percent inhibition of mRNA gene expression, IDH3α ([3]; 2 µM): 50.8% and 50.8 ± 8.69%; Percent inhibition of mRNA gene expression, COX4I1 ([9]; 2 µM): 12.5% and 12.5 ± 2.60%; Percent inhibition of mRNA gene expression, Cytochrome C ([4]; 2 µM): 47.6% and 47.6 ± 7.45%; ERR-HEK293 Primary Efficacy ([7]; listed as methodichlorophen): −90.9%
– | – | – | – | – | – | – | – | – | COc1cc(/C=C(\C#N)C(=O)Nc2nnc(C(F)(F)F)s2)ccc1OCc1ccc(C(F)(F)F)cc1C(F)(F)F [XCT790] | – | – | – | Percent inhibition of mRNA gene expression, COX8α ([8]; 12 µM, mean ± S.D.): 65.0 ± 8.41%; Percent inhibition of mRNA gene expression, IDH3α ([3]; 12 µM): 42.6 ± 6.59%; Percent inhibition of mRNA gene expression, PPARα [10]: 16.0 ± 1.70%; Percent inhibition of mRNA gene expression, COX4I1 ([9]; 12 µM): 46.0 ± 2.16%; Percent inhibition of mRNA gene expression, Cytochrome C ([4]; 12 µM): 60.8 ± 2.16%
